From patent US20070265289A1, “2-Aminopyrimidine Derivative” (priority 2004, published 2007)

Assays:
[1] = test system: collagen-induced rheumatoid arthritis; assay: Rat collagen-induced rheumatoid arthritis model; type: in vivo; conditions: oral administration at a dose of 30 mg/kg, 14 days
Method: (4) Collagen-Induced Rheumatoid Arthritis Model:
The effect to rat collagen-induced rheumatoid arthritis was evaluated according to a partial modification of the method described in The Japanese Journal of Pharmacology, 1997 August; 74(4): 313-22.
10 mL of a 1 mg/mL solution of bovine-derived type 2 collagen (by Cosmobio) diluted three-fold with acetic acid was mixed with adjuvant incomplete Freund (by Difco) in 1/1, and emulsified to give an emulsion for sensitization. The tail root of each rat in a control group and in a test compound administration group was disinfected with ethanol, and collagen-sensitized through intradermal injection of 0.4 mL of the emulsion containing […] of collagen thereinto to thereby induce rheumatoid arthritis. The rats in the non-sensitized group were not treated for collagen sensitization. To the rats of the control group, 10 mL/kg of 0.5% methyl cellulose was orally administered. To the rats of the test compound administration group, a compound of the invention was orally administered. One week after the sensitization, the administration continued for 14 days. The degree of inflammation was judged by measuring the rheumatoid arthritis scores of the four limbs of each rat (scoring). Briefly, the symptom of each articulation was visually grouped into the following four ranks (0: normal, 1: flare or light swelling, 2: middle swelling, 3: heavy swelling or joint ankylosis); and the total of the numerical data of the four limbs is referred to as the rheumatoid arthritis score. The scoring was carried out every other day after the development of rheumatoid arthritis. The cumulative rheumatoid arthritis score was calculated by totaling the rheumatoid arthritis scores on every scoring date of every individual. Relative to the mean cumulative rheumatoid arthritis score of rats of the control group, the inhibition by the those of the test compound administration group was calculated, and the mean value of the data was shown.

rat IKK2 = molecular target: T1, rat IKK2 (Rattus norvegicus, UniProt Q9QY78); assay: Evaluation of rat IKK2 enzyme inhibition; type: biochemical; conditions: 0.5 μM ATP, probit analysis; read-out: IC50, rat IKK2 enzyme activity-inhibitory effect
T1 construct: ORF of rat IKK2 (GenBank AF115282) was cloned from a rat pancreas cDNA library; FLAG; made in house; host or cells: Sf9 insect cells
T1 sequence (Q9QY78 1-757): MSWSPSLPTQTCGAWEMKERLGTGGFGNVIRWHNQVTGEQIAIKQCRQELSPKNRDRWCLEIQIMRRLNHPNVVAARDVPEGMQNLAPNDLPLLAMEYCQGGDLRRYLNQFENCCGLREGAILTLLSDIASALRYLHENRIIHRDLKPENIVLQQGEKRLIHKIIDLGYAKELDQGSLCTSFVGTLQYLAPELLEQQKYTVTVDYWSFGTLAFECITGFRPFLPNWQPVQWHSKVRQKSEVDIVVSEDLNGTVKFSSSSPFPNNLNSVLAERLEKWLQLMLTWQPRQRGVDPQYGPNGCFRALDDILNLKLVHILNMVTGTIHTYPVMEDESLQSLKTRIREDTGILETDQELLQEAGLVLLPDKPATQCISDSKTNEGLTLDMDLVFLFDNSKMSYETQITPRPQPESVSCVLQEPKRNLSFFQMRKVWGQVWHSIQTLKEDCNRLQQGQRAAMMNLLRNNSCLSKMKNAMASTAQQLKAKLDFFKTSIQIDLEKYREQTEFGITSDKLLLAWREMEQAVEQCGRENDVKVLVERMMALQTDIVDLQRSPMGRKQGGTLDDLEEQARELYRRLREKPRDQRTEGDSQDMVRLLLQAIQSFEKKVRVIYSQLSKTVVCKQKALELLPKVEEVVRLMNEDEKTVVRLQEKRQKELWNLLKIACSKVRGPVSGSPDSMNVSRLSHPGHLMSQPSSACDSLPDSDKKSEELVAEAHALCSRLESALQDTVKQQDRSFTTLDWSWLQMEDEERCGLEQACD
Method: (1) Evaluation of Rat IKK2 Enzyme Inhibition:
ORF of rat IKK2 (GenBank AF115282) was cloned from a rat pancreas cDNA library, and with a FLAG-tag attached thereto, it was expressed in an Sf9 cell line. The cells were dissolved in a cytolytic solution (50 mM Tris-HCl pH 7.5, 0.15M NaCl, 1% NP-40, 10% glycerol, 1 mM EDTA, 1 mM EGTA pH 7.5, 1 mM Na3VO4, 5 mM p-nitrophenylphosphate, 10 mM O-glycerophosphate, 1 mM DTT, 1 mM PMSF, 10 μg/ml leupeptin, 10 μg/ml aprotinin (by Sigma)) to prepare a large amount of an cell extract, which was then purified on an anti-FLAG M2 antibody (by Sigma). This experimental operation was carried out in accordance with gene manipulation experiment manuals such as known methods (Sambrook, J. et al, Molecular Cloning-A Laboratory Manual, Cold Spring Harbor laboratory, NY, 1989) or the instructions attached to the reagents. The purified rat IKK2 was stored in an enzyme preservative (20 mM Tris-HCl pH 7.5, 10% glycerol, 12.5 mM β-glycerophosphate, 0.5 mM EDTA, 0.5 mM EGTA, 0.05% Brij35, 1 mM DTT, 1 mM PMSF (by Sigma)) at −80° C.
The purified rat IKK2, 1× enzymatic reaction buffer (20 mM Tris-HCl pH 7.5, 12.5 mM O-glycerophosphate, 20 mM MgCl2, 0.1 mM DTT), 0.01% BSA (by Sigma), 0.5 μM ATP, 0.2 μM biotinated substrate peptide (18th to 49th amino acid residues of rat I-kappa B alpha (GenBank Q63746)) and a test compound dissolved in DMSO were added to a 384-well plate (catalogue No. 3677, by Corning) to be 10 μl in total therein, and left at room temperature for 90 minutes. Next, […] of a reaction stopper (100 mM Hepse pH 8, 0.01% BSA, 0.8 M KF, 50 mM EDTA pH 8, 1% Triton X-100, europium cryptate-labeled anti-phosphorylation I-kappa B alpha-antibody (by Santa Cru), streptoavidin-labeled XL665 (by Nihon Schering)) was added thereto, kept warmed for 30 minutes, and then assayed with DISCOVERY (by Perkin-Elmer). The rat IKK2 enzyme activity-inhibitory effect of the tested compound was obtained according to the following formula. Every dose was tested independently three times. Inhibition (%) by Test Compound=((mean value with rat IKK2 but not with test compound)−(mean value with both test compound and rat IKK2))/((mean value with rat IKK2 but not with test compound)−(mean value not with rat IKK2))×100.

TNF-α production = assay: Mouse LPS-induced TNF-α production model; type: in vivo, Balb/c female mice; conditions: Mus musculus, po, 1.5 h, oral administration of 30 mg/kg, 60 minutes before LPS, blood 90 minutes after LPS; read-out: inhibition of plasma TNF-α
Method: (2) Mouse LPS-Induced TNF-α Production Model:
6 weeks old Balb/c female mice were placed into two groups, a control group and a test compound administration group. A solution containing 10 μg/mouse of LPS in 0.9% physiological salt was administered by intraperitoneal injection into the control mice. 60 minutes before the LPS administration, a compound of the invention was orally administered to the mice of the test compound administration group. Under anesthesia with diethyl ether, blood was collected from the posterior venous cavity of the mice of both the test compound administration group and the control group at 90 minutes after the LPS administration, and treated with heparin, and the plasma was separated from it through centrifugation at 10000 rpm at 4° C. for 10 minutes, and then diluted two-fold with PBS (pH 7.4).
The TNF-α concentration in the sample was determined with an ELISA kit (by Pharmingen, San Diego, Calif.). The inhibition by the mice of the test compound administration group relative to the mean inhibition by those of the control group was calculated as a mean value thereof.
The inhibition in oral administration of 30 mg/kg of compound (I) is shown below.

Row | SMILES | inhibition of cumulative rheumatoid arthritis score [1] [%] | IC50 (rat IKK2) [nM] | inhibition in vivo at 30 mg/kg (TNF-α production) [%]
1 | Nc1nc(-c2c(O)cccc2OCC2CC2)cc(C2CCCNC2)n1 (stereo not shown) [Example 37] | ~100 | ≤ 500 | 
2 | Nc1nc(-c2c(O)cccc2OCC2CCC2)cc(C2CCCNC2)n1 (stereo not shown) [Example 85] | ~100 | ≤ 500 | 85
3 | Nc1nc(-c2c(O)cccc2OCC2CCCC2)cc(C2CCCNC2)n1 (stereo not shown) [Example 92] | ~100 | ≤ 500 | 
